Where a SMILES comes first, the peptide text is derived from it. [ ]: non-standard residue; d: D form. Lys(Thioacetyl) = CC(=S)NCCCC[C@H](N)C(=O)O
Legend:
[1] = biological target: T1, NAD-dependent protein deacetylase sirtuin-2 (Homo sapiens, UniProt Q8IXJ6); assay: Inhibition of recombinant SIRT2 preincubated for 5 mins before addition of substrate measured after 3 hrs by fluorescence-based assay
T1 sequence (Q8IXJ6 whole entry): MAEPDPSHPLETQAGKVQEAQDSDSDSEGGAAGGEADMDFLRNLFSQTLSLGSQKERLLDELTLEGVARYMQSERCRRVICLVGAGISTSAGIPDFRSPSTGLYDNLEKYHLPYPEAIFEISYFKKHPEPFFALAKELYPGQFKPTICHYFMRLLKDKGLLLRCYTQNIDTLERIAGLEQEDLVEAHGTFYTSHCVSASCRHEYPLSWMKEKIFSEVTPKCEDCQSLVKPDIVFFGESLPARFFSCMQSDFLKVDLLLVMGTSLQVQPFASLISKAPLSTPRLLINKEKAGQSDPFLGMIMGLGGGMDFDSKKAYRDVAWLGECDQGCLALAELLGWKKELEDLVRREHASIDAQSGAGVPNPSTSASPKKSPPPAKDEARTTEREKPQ

[2] = biological target: T2, NAD-dependent protein deacetylase sirtuin-1 (Homo sapiens, UniProt Q96EB6); assay: Inhibition of recombinant SIRT1 preincubated for 5 mins before addition of substrate measured after 1 hr by fluorescence-based assay
T2 sequence (Q96EB6 whole entry): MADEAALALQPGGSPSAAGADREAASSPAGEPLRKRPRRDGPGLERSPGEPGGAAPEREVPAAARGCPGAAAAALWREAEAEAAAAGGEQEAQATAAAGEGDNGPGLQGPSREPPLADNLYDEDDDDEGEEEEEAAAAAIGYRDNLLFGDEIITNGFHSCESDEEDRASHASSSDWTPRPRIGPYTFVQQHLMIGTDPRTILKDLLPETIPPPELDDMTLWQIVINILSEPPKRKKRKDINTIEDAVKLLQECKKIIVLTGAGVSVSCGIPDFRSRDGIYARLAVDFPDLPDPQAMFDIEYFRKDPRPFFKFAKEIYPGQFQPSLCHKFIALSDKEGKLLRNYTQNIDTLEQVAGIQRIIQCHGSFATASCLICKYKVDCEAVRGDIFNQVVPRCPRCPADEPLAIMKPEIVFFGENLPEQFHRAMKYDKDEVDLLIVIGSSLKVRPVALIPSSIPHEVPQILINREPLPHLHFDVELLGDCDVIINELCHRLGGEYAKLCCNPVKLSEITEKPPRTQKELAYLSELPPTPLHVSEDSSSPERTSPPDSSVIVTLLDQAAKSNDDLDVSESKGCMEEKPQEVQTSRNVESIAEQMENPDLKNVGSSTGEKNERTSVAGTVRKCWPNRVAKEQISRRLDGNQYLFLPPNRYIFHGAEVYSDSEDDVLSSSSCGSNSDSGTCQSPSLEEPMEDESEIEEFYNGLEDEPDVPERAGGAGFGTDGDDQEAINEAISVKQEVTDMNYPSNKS

[3] = biological target: T3, NAD-dependent protein deacetylase sirtuin-1 (Homo sapiens) (UniProt Q96EB6); assay: Inhibition of recombinant SIRT1 at 200 uM preincubated for 5 mins before addition of substrate measured after 1 hr by fluorescence-based assay
T3 sequence (whole entry): T2 sequence (Q96EB6 whole entry)

[4] = biological target: T4, NAD-dependent protein deacetylase sirtuin-2 (Homo sapiens) (UniProt Q8IXJ6); assay: Inhibition of recombinant SIRT2 at 200 uM preincubated for 5 mins before addition of substrate measured after 3 hrs by fluorescence-based assay
T4 sequence (whole entry): T1 sequence (Q8IXJ6 whole entry)

[5] = biological target: T1, NAD-dependent protein deacetylase sirtuin-2; assay: Inhibition of GST-tagged SIRT2 expressed in Escherichia coli after 60 mins by Dixon plot
[6] = biological target: T2, NAD-dependent protein deacetylase sirtuin-1; assay: Inhibition of GST-tagged SIRT1 expressed in Escherichia coli after 10 mins by Dixon plot

| IC50 [1] [µM] | IC50 [2] [µM] | further results | SMILES |
| --- | --- | --- | --- |
| 37.4 | 3.2 |  | CC[C@H](C)[C@H](NC(=O)[C@@H](NC(=O)[C@H](CCCCNC(C)=S)NC(=O)[C@H](CC(=O)O)NC(=O)[C@H](C)N)[C@@H](C)O)C(=O)O (H-AD[Lys(Thioacetyl)]TI-OH) |
| 6.9 | 0.18 |  | CC[C@H](C)[C@H](NC(=O)[C@@H](NC(=O)[C@H](CCCCNC(C)=S)NC(=O)[C@H](CCCCN)NC(=O)[C@@H](N)CO)[C@@H](C)O)C(=O)O (H-SK[Lys(Thioacetyl)]TI-OH) |
| 83.4 | 4.5 |  | CC[C@H](C)[C@H](NC(=O)[C@@H](NC(=O)[C@H](CCCCNC(C)=S)NC(=O)[C@@H](N)CC(=O)O)[C@@H](C)O)C(=O)O (H-D[Lys(Thioacetyl)]TI-OH) |
| 49.8 | 0.33 |  | CSCC[C@H](NC(=O)[C@H](CC(C)C)NC(=O)[C@H](CCCCNC(C)=S)NC(=O)[C@@H](N)CCCCN)C(=O)O (H-K[Lys(Thioacetyl)]LM-OH) |
| 84.6 | 8.8 |  | CC(=S)NCCCC[C@H](NC(=O)[C@H](CC(=O)O)NC(=O)[C@@H](N)CO)C(=O)N[C@H](C(=O)N[C@@H](C)C(=O)O)[C@@H](C)O (H-SD[Lys(Thioacetyl)]TA-OH) |
|  |  | inhibition [3]: 11.8%; inhibition [4]: 13.9% | CC(=S)NCCCC[C@H](NC(=O)[C@H](CC(=O)O)NC(=O)[C@@H](N)CO)C(=O)O |
| 3.8 | 0.18 |  | CSCC[C@H](NC(=O)[C@H](C)NC(=O)[C@H](CCCCNC(C)=S)NC(=O)[C@H](CCCCN)NC(=O)[C@@H](N)Cc1cnc[nH]1)C(=O)O (H-HK[Lys(Thioacetyl)]AM-OH) |
| 8.5 | 0.38 |  | CSCC[C@H](NC(=O)[C@H](CC(C)C)NC(=O)[C@H](CCCCNC(C)=S)NC(=O)[C@H](CCCCN)NC(=O)[C@H](C)N)C(=O)O (H-AK[Lys(Thioacetyl)]LM-OH) |
| 5.5 | 0.22 |  | CC[C@H](C)[C@H](NC(=O)[C@@H](NC(=O)[C@H](CCCCNC(C)=S)NC(=O)[C@H](C)NC(=O)[C@@H](N)CO)[C@@H](C)O)C(=O)O (H-SA[Lys(Thioacetyl)]TI-OH) |
| 44 | 11.1 |  | CC(=S)NCCCC[C@H](NC(=O)[C@H](CC(=O)O)NC(=O)[C@@H](N)CO)C(=O)N[C@H](C(=O)O)[C@@H](C)O (H-SD[Lys(Thioacetyl)]T-OH) |
| 19.9 | 0.48 |  | CC(=S)NCCCC[C@H](NC(=O)[C@H](CCCCN)NC(=O)[C@@H](N)Cc1cnc[nH]1)C(=O)N[C@@H](CC(C)C)C(=O)O (H-HK[Lys(Thioacetyl)]L-OH) |
| 16.5 | 0.55 |  | CSCC[C@H](NC(=O)[C@H](CC(C)C)NC(=O)[C@H](CCCCNC(C)=S)NC(=O)[C@H](C)NC(=O)[C@@H](N)Cc1cnc[nH]1)C(=O)O (H-HA[Lys(Thioacetyl)]LM-OH) |
| 31.1 | 4.3 |  | CC[C@H](C)[C@H](NC(=O)[C@@H](NC(=O)[C@H](CCCCNC(C)=S)NC(=O)[C@H](CC(=O)O)NC(=O)[C@@H](N)Cc1cnc[nH]1)[C@@H](C)O)C(=O)O (H-HD[Lys(Thioacetyl)]TI-OH) |
| 238 | 23.2 |  | CC[C@H](C)[C@H](NC(=O)[C@H](CC(C)C)NC(=O)[C@H](CCCCNC(C)=S)NC(=O)[C@H](CC(=O)O)NC(=O)[C@@H](N)CO)C(=O)O (H-SD[Lys(Thioacetyl)]LI-OH) |
| 10.6 | 1.4 |  | CSCC[C@H](NC(=O)[C@@H](NC(=O)[C@H](CCCCNC(C)=S)NC(=O)[C@H](CC(=O)O)NC(=O)[C@@H](N)CO)[C@@H](C)O)C(=O)O (H-SD[Lys(Thioacetyl)]TM-OH) |
| 151 | 0.57 |  | CC(=S)NCCCC[C@H](NC(=O)[C@@H](N)CCCCN)C(=O)N[C@@H](CC(C)C)C(=O)O |
| 7.6 | 0.23 |  | CC[C@H](C)[C@H](NC(=O)[C@@H](NC(=O)[C@H](CCCCNC(C)=S)NC(=O)[C@H](CCCCN)NC(=O)[C@@H](N)Cc1cnc[nH]1)[C@@H](C)O)C(=O)O (H-HK[Lys(Thioacetyl)]TI-OH) |
| 6.4 | 0.33 | IC50 [5]: 10 µM; IC50 [6]: 10 µM | CSCC[C@H](NC(=O)[C@H](CC(C)C)NC(=O)[C@H](CCCCNC(C)=S)NC(=O)[C@H](CCCCN)NC(=O)[C@@H](N)Cc1cnc[nH]1)C(=O)O (H-HK[Lys(Thioacetyl)]LM-OH) |
| 175 | 12 |  | CC(=S)NCCCC[C@H](NC(=O)[C@@H](N)CC(=O)O)C(=O)N[C@H](C(=O)O)[C@@H](C)O |
| 72.8 | 6.7 |  | CC[C@H](C)[C@H](NC(=O)[C@H](C)NC(=O)[C@H](CCCCNC(C)=S)NC(=O)[C@H](CC(=O)O)NC(=O)[C@@H](N)CO)C(=O)O (H-SD[Lys(Thioacetyl)]AI-OH) |
| 92.9 | 10.8 |  | CSCC[C@H](NC(=O)[C@H](CC(C)C)NC(=O)[C@H](CCCCNC(C)=S)NC(=O)[C@H](CC(=O)O)NC(=O)[C@@H](N)CO)C(=O)O (H-SD[Lys(Thioacetyl)]LM-OH) |
| 33.3 | 0.9 |  | CC(=S)NCCCC[C@H](NC(=O)[C@H](CCCCN)NC(=O)[C@@H](N)Cc1cnc[nH]1)C(=O)N[C@@H](CC(C)C)C(=O)N[C@@H](C)C(=O)O (H-HK[Lys(Thioacetyl)]LA-OH) |
| 29.1 | 5 |  | CC[C@H](C)[C@H](NC(=O)[C@@H](NC(=O)[C@H](CCCCNC(C)=S)NC(=O)[C@H](CC(=O)O)NC(=O)[C@@H](N)CO)[C@@H](C)O)C(=O)O (H-SD[Lys(Thioacetyl)]TI-OH) |

From ChEMBL document CHEMBL1153388, “N(epsilon)-thioacetyl-lysine-containing tri-, tetra-, and pentapeptides as SIRT1 and SIRT2 inhibitors” (J Med Chem, 2009)
